Legend:
Test in all cases: Measurement of transcriptional activity, GAL4-PPAR LBD chimera / PLAP reporter in CV-1 cells
Assay type in all cases: cell-based
PPAR β = target: T1, PPAR β (Homo sapiens, UniProt Q03181); details: PLAP activity secreted 24 hours after addition of the compound, read-out: Transcriptional activities EC50 PPAR β
T1 construct: 138–440 (NUC-1); expressed in transfected cells; host or cells: CV-1 (ATCC CCL-70)
T1 sequence (Q03181 138-440): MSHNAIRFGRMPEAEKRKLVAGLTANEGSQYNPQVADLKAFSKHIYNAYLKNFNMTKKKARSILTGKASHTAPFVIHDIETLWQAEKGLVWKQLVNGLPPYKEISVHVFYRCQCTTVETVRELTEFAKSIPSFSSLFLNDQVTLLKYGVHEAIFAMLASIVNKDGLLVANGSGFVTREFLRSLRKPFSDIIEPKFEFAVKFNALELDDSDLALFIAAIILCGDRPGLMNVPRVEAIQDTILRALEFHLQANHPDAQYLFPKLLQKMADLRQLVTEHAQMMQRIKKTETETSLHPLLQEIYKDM
Text: (§1) Measurement of Transcriptional Activity
(§2) A GAL4-PPAR LBD chimera expression vector was constructed by ligating human PPAR 167–468 (PPAR), 138–440 (NUC-1) and 174–475 (PPAR) amino acid regions (LBD: Ligand Binding Domain) to a yeast transcriptional factor GAL4 1–147 amino acid region. As the reporter gene, PLAP (Placental Alkaline Phosphatase) was used, and this was ligated downstream of a TK promoter containing a 5-copy GAL4 DNA binding element to construct a vector. As host cells, CV-1 (ATCC CCL-70) was used. That is, CV-1 cells were spread at a density of 5×10^5 cells on a 35-mm dish and cultured in 10% FCS/DMEM for 24 hours, and using FuGENE 6 transfection reagent, the cells were co-transfected with the GAL4-PPAR LBD expression vector and GAL4 DBD-TK-PLAP expression vector. 24 hours after this transfection, the cells were spread again on a 96-well plate at a density of 1×10^4/well and further cultured for 24 hours. After 24 hours, the medium was exchanged with DMEM containing 10% FCS, which was previously treated at 65° C. for inactivating intrinsic alkaline phosphatase, and a test compound was added at an arbitrary concentration. The transcriptional activity was determined in terms of PLAP activity secreted 24 hours after addition of the compound, to calculate EC50. The PLAP activity was determined after adding 50 μl assay buffer and 50 μl chemoluminescence substrate to 10 μl culture supernatant and incubating the mixture at room temperature for 1 hour. The transcriptional activities for PPARα, PPARβ(δ) and PPARγ are shown respectively in Table 1.

PPAR α = target: T2, PPAR α (Homo sapiens, UniProt Q07869); details: PLAP activity secreted 24 hours after addition of the compound, read-out: Transcriptional activities EC50 PPAR α
T2 construct: human PPAR 167–468 (PPAR); expressed in transfected cells; host or cells: CV-1 (ATCC CCL-70)
T2 sequence (Q07869 167-468): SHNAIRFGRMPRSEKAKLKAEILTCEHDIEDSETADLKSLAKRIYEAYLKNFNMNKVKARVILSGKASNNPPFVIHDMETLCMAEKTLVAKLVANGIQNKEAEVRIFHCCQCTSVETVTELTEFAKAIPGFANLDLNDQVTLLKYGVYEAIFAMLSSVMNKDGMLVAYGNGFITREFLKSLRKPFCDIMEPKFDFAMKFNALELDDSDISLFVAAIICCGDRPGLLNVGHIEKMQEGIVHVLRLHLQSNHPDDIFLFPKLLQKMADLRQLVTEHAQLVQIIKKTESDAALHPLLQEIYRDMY
Text: as §1, §2

PPAR γ = target: T3, PPAR γ (Homo sapiens, UniProt P37231); details: PLAP activity secreted 24 hours after addition of the compound, read-out: Transcriptional activities EC50 PPAR γ
T3 construct: 174–475 (PPAR) amino acid regions; expressed in transfected cells; host or cells: CV-1 (ATCC CCL-70)
T3 sequence (P37231 174-475 isoform P37231-2): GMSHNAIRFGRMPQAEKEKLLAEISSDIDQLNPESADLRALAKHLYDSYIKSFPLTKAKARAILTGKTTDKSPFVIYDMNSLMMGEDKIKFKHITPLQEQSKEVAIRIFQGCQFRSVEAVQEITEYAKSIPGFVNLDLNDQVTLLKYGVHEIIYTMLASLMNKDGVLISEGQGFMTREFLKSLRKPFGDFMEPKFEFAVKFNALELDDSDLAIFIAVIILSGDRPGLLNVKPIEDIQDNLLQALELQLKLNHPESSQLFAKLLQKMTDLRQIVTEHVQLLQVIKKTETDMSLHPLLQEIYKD
Text: as §1, §2

| SMILES | EC50 (PPAR β) | EC50 (PPAR α) | EC50 (PPAR γ) |
| --- | --- | --- | --- |
| COc1ccc(CC(OC(C)C)C(=O)O)c(OC)c1CNC(=O)c1ccc(OC2CCCC2)cc1Cl (stereo not drawn) [Example 11, 3-(3-[(2-Chloro-4-cyclopentyloxybenzoyl)amino]methyl-2,4-dimethoxyphenyl)-2-isopropoxypropionic acid] | 1000 nM | 10.8 nM | 5.8 nM |
| CC(C)OC(Cc1cc(CNC(=O)c2ccc(C(F)(F)F)cc2F)c2occc2c1)C(=O)O (stereo not drawn) [Example 35] | 483 nM | 66.5 nM | 52.4 nM |
| CC(C)Oc1ccc(C(=O)NCc2cc(CC(OC(C)C)C(=O)O)cc3c2OCC3)c(Cl)c1 (stereo not drawn) [Example 42, 3-(7-[(2-Chloro-4-isopropoxybenzoyl)amino]methyl-2,3-dihydrobenzo[b]furan-5-yl)-2-isopropoxypropionic acid] | 1600 nM | 17.9 nM | 3.4 nM |

Source: patent US7244861B2, “Benzene compound and salt thereof” (Eisai Co., Ltd., priority 2001, dated 2007)
